Test results from US9289402B2, “Metal entrapped bioactive composites” (YISSUM RESEARCH DEVELOPMENT COMPANY OF THE HEBREW …, priority 2010, dated 2016).

Assays:
[1] = test system: Escherichia coli strain MG1655; test: Bactericidal kinetic test towards E. coli MG1655; assay type: cell-based; details: HEPES buffer 0.04 M pH 7.4, 26 °C, ca. 10^6 CFU/ml, concentrations of Table 1 (composite 50.0 ppm, AgNO3 0.1 ppm, CHD 0.75 ppm)
Protocol: A wild-type Escherichia coli strain MG1655 was used as a target organism to evaluate the bactericidal efficacy of the active ingredients i.e. CHD, metallic and ionic Ag and the CHD@Ag composite. Bacteria were maintained on MacConkey agar plates at […]. Prior to each experiment, an overnight culture was prepared by seeding single colonies into 30 ml of Luria Bertani (LB) broth at 37° C. with shaking. This overnight culture was then washed three times by centrifugation (10 min, 4850 rpm, at 25° C.) and resuspended in HEPES buffer (0.04M, pH 7.4). The resulting washed pellet was resuspended in HEPES and brought to an optical density (OD590) of 0.3 which corresponds to ca. 10^8 CFU/ml. Enumeration of bacteria was performed by serial dilution and plating via the pour-plate technique. The inoculated plates were incubated at 37° C. for 24 h and bacterial concentrations were determined by enumerating the resulting CFUs. The bactericidal kinetic tests were carried out in five acid-washed 500 ml Erlenmeyer flasks filled with 200 ml HEPES buffer. The flasks were capped with dense paper caps to allow oxygen supply. Typically, the active ingredients at the desired concentrations and combinations were added first and then 2.0 ml of the E. coli suspension was added to final concentration of ca. 10^6 CFU/ml. The active ingredients included one of the following: CHD@Ag composite, MeOH-extracted composite, AgNO3 solution, CHD solution and combinations thereof in final concentrations and the amounts which are summarized in Table 1. [table] The vessels were kept in an incubated shaker at 26° C. under dark conditions. The disinfection kinetics were followed by sequentially sampling 1.0 ml aliquots form the vessels at the designated times. These samples were neutralized by dilution (1:1) with a neutralizing solution (0.2% w/w sodium thioglycolate, 1.9% w/w sodium thiosulphate, 1% w/w Tween 80, 1.4% w/w lecithin) for 5 min. The efficiency of this neutralization procedure was validated in separate control experiments. […] The plates were incubated at 37° C. for 24 h and bacterial colonies were counted. […]

P. aeruginosa PU21 = test: Bactericidal kinetic test towards P. aeruginosa PU21; assay type: cell-based, Pseudomonas aeruginosa; details: FIG. 8

SMILES	biocidal activity towards E. coli MG1655 [1]	bactericidal effect towards P. aeruginosa PU21 (P. aeruginosa PU21)	biocidal activity towards E. coli MG1655 ([1]; listed as CHD solution)
O=[N+]([O-])[O-].[Ag+] [Ag^+, AgNO3]	no biocidal activity		
N=C(NCCCCCCNC(=N)NC(=N)Nc1ccc(Cl)cc1)NC(=N)Nc1ccc(Cl)cc1.O=C(O)[C@H](O)[C@@H](O)[C@H](O)[C@H](O)CO.O=C(O)[C@H](O)[C@@H](O)[C@H](O)[C@H](O)CO [CHD, Chlorhexidine digluconate]	only slightly affected	weak bactericidal effect	only very weak biocidal activity
